# Reference: publication PMC6101033 (Neuron, 2017)
# Assays:
# RhoA = test: RhoA2G FRET sensor imaging in hippocampal neurons; conditions: AP5 1μM + ADDLs; dendritic shaft; Figure S4E
# [1] = test system: calcium signaling in hippocampal neurons; test: RCaMP calcium sensor imaging in hippocampal neurons; conditions: for baseline calcium in dendrites, VGCC blockers: all 1μM, sustained (1 min mean) ΔF/F of shaft ROIs, n=3–11 neurons, p<0.03 vs control imaging period; for inhibition of dendritic calcium in neurons lacking T-type channels: shCaV3.1-3.3, Figure S5E
# T-type calcium channels [2] = test: whole-cell T-type; type: cell-based, Long-Evans rat; conditions: for T-type current inhibition, blockers: 1μM; for LV currents in neurons lacking all T-type channels: shCaV3.1-3.3, Figure S6F
# hippocampal neurons [3] = test: cell health and dendritic spine integrity under blockers; type: cell-based, Long-Evans rat; conditions: hippocampal slice cultures; data not shown
# T-type calcium channels [4] = test: T-type currents in acute hippocampal slices; design: species or system mouse; conditions: NNC added to slice; Figure S8E
# [5] = test system: CA1 pyramidal neurons (Schaffer collateral-CA1 synapses)
# T-type channel = conditions: ref Yamamoto et al, 2013; cited from earlier work
# LTP = conditions: ref Moriguchi et al., 20012; cited from earlier work
# hippocampal neurons [6] = conditions: ref Wills et al., 2012; cited from earlier work
# [7] = AP5 1μM + ADDLs, dendritic shaft, Figure S4E
compound,measurement,setting,value
NC(CCCP(=O)(O)O)C(=O)O (stereo not drawn) [AP5],long-term RhoA activation by ADDLs under NMDAR inhibition,RhoA,long-term activation of RhoA and inhibition of calcium signaling is preserved
same,acute calcium response to ADDLs under NMDAR inhibition,[1]; [7],acute calcium responses to ADDLs in the dendritic shaft of neurons are lost
same,long-term calcium inhibition by ADDLs under NMDAR inhibition,[1]; [7],long-term activation of RhoA and inhibition of calcium signaling is preserved
CC(C)[C@H]1c2ccc(F)cc2CC[C@@]1(CCN(C)CCCc1nc2ccccc2[nH]1)OC(=O)C1CC1 [NNC],"T-type current inhibition, blockers",T-type calcium channels [2],ADDL’s inhibition of T-type currents was comparable to T-type channel blockers NNC and TTA-P2
same,LV currents in neurons lacking all T-type channels,T-type calcium channels [2],neither NNC or TTAP2 inhibit LV currents in neurons lacking all T-type channels
same,"baseline calcium in dendrites, VGCC blockers",[1],elicited the largest reductions in baseline calcium in dendrites
same,inhibition of dendritic calcium in neurons lacking T-type channels,[1],eliminates NNC and TTA-P2’s inhibition of calcium signaling in dendrites
same,"effects on dendritic spines, NNC",hippocampal neurons [3],no pathological effects on dendritic spines in hippocampal slice cultures
same,LV currents in acute hippocampal slice,T-type calcium channels [4],inhibits LV currents in our acute hippocampal slice recording
same,"LTP rescue under ADDLs by ROCK inhibition or NgR loss, effect of NNC","[5]; NNC 10μM + ADDL + Y27632 (10μM) or NgR^NNN, p<0.04",reverses the capacity of ROCK inhibition (Y27632) or NgR loss (NgR^NNN) to rescue neurons from ADDL-mediated LTP reduction
same,"LTP, NNC combined with ADDLs","[5]; NNC 10μM + ADDL, fEPSC 55–60 min, n=6–8 animals/slices per condition",no greater inhibition of LTP than either ADDL or NNC alone
same,"LTP, T-type channel blocker","[5]; NNC 10μM, 6 months mice, fEPSC 55–60 min, p<0.001 vs CON",inhibits LTP in acute hippocampal slices
"O=C1N=C2C=CC=CN2C12Cc1ccccc1C2 [STK101, spiro[imidazo-[1,2-a]pyridine-3,2-indan]-2(3H)-one]",T-type channel agonism,T-type channel,T-type channel agonist
same,LTP,LTP,enhances LTP
CC1(C)C[C@@H](CN2CCC(F)(CNC(=O)c3cc(Cl)cc(Cl)c3)CC2)CCO1 [TTA-P2],"T-type current inhibition, blockers",T-type calcium channels [2],ADDL’s inhibition of T-type currents was comparable to T-type channel blockers NNC and TTA-P2
same,LV currents in neurons lacking all T-type channels,T-type calcium channels [2],neither NNC or TTAP2 inhibit LV currents in neurons lacking all T-type channels
same,"baseline calcium in dendrites, VGCC blockers",[1],elicited the largest reductions in baseline calcium in dendrites
same,inhibition of dendritic calcium in neurons lacking T-type channels,[1],eliminates NNC and TTA-P2’s inhibition of calcium signaling in dendrites
C[C@@H](N)[C@H]1CC[C@H](C(=O)Nc2ccncc2)CC1 [Y27632],reversal of ADDL block of T-type currents,T-type calcium channels [2]; Y27632 1μM + ADDLs,reverses ADDL’s block of T-type channel currents
same,ADDL inhibition of dendritic calcium under ROCK inhibition,"[1]; Y27632 1μM, 10 minutes, then ADDLs 150nM, n=3 neurons",ADDL-mediated inhibition of dendritic calcium signaling in neurons is lost
same,"RCaMP activity in the dendritic shaft, ROCK inhibitor","[1]; Y27632 1μM, 1 min mean ΔF/F, shaft ROIs",marked rise in RCaMP activity in the dendritic shaft of neurons
same,ADDL inhibition of dendritic calcium after washout of Y27632,"[1]; washout 10 minutes, then ADDLs 150nM, n=3 neurons, p<0.001 vs CON","following a washout of Y27632, ADDL’s inhibition of dendritic calcium signaling is restored"
same,"neuron health, Y27632",hippocampal neurons [6],no deleterious effects on neuron health
same,"LTP, reversal of ADDL inhibition","[5]; Y27632 1μM preincubation + ADDLs 150 nM, fEPSC 55–60 min, p<0.05 vs ADDL",reverses ADDL’s inhibition of LTP
same,"LTP, ROCK inhibitor alone","[5]; Y27632 1μM, control neurons, no ADDLs, p<0.03 vs CON (WT)",blocks LTP
COCCOC(=O)C1=C(C)NC(C)=C(C(=O)OC(C)C)C1c1cccc([N+](=O)[O-])c1 (stereo not drawn) [nimodipine],"LTP, L-type channel blocker","[5]; Nimodipine 1μM, 6 months mice, fEPSC 55–60 min",no effect on LTP
lysophosphatidic acid [LPA],"T-type currents, RhoA activator","T-type calcium channels [2]; LPA 1μM vs ADDLs 150nM, 14–18 DIV",inhibits T-type currents with a magnitude comparable to that of ADDLs
